In experiment [1] the test system is RAW264.7. The experiment is described as follows: Inhibition of LPS-induced nitric oxide production in mouse RAW264.7 cells assessed as nitrite level after 24 hrs by Griess method. The class given is functional, cell-based. To be noted: for IC50: RAW264.7, 24 h. (Griess reagent forms a coloured azo dye with nitrite.)
Experiment [2] relates to Neutrophil. As to the kind of experiment: Inhibition of superoxide anion generation in fMLP-stimulated human neutrophils. The experiment is classed as functional, cell-based.
Experiment [3] concerns RAW264.7. The experiment is described as follows: Cytotoxicity against mouse RAW264.7 cells after 24 hrs by MTT assay. The settings on record: RAW264.7, 24 h. The experiment is classed as cell-based.
Experiment [4] has as its system RAW264.7. The experiment is described as follows: Inhibition of LPS-induced nitric oxide production in mouse RAW264.7 cells assessed as nitrite level upto 50 uM after 24 hrs by Griess method. The class given is functional, cell-based.

Activity calls are given as the source filed them. No cut-off for these calls is given here.

What is called IC50 is the concentration that inhibits the measured activity by half. Consider `COC(=O)C[C@H]1C(C)(C)[C@H](OC(C)=O)[C@]2(O)CC3=C4CC(=O)O[C@@H](c5ccoc5)[C@]4(C)CC[C@@H]3[C@@]1(C)C2=O` [2-HYDROXYFISSINOLIDE], for which, in experiment [1], the inhibition result was “Dose-dependent effect” and the IC50 stood at 52.1 µM. Further, the IC50 in experiment [2] is above 27 µM.
For the compound `CC1(C)C(=O)C=C[C@]2(C)[C@H]3CC[C@@]4(C)[C@H](c5ccoc5)OC(=O)[C@H]5O[C@]54[C@]3(C)C(=O)C[C@@H]12` [DEACETOXY-7-OXOGEDUNIN], in experiment [1], the inhibition entry was “Dose-dependent effect” and the IC50 came out at 22.8 µM. Besides, the half-maximal inhibitory concentration (IC50) in experiment [3] was 16.7 µM.
In the same order, the values of `CC1(C)C(=O)C=C[C@]2(C)[C@H]3CC[C@@]4(C)[C@H](c5ccoc5)OC(=O)[C@H]5O[C@]54[C@]3(C)[C@H](O)C[C@@H]12` [DEACETYLGEDUNIN] are “Dose-dependent effect”, below 10 µM and 37.6 µM.
Turning to `COC(=O)C[C@H]1C(C)(C)C(=O)[C@@H]2CC3=C4CC(=O)O[C@@H](c5ccoc5)[C@]4(C)CC[C@@H]3[C@@]1(C)C2=O` [MEXICANOLIDE], the inhibition entry in experiment [4] was “inactive”. Besides, the IC50 in experiment [2] was above 27 µM.
For `COC(=O)C[C@H]1[C@]2(C)C[C@]3(O)[C@@](O)(C(=O)C4=C(CC[C@]5(C)C4=CC(=O)O[C@H]5c4ccoc4)[C@]13C)[C@H]2OC(C)=O` [MOLUCCENSIN H], the inhibition entry in experiment [4] was “inactive”. The compound also yielded an IC50 in experiment [2] above 27 µM.
In the case of `COC(=O)C[C@H]1[C@]2(C)C[C@@]3(O)[C@]1(C)[C@H]1CC[C@]4(C)C(=C1C(=O)[C@@]3(OC)[C@H]2OC(C)=O)CC(=O)O[C@H]4c1ccoc1` [MOLUCCENSIN I], the inhibition result in experiment [4] was “inactive”. The IC50 in experiment [2] is above 27 µM.
Consider `COC(=O)C[C@H]1C(C)(C)[C@H](O)[C@@H]2CC3=C4CC(=O)O[C@@H](c5ccoc5)[C@]4(C)CC[C@@H]3[C@@]1(C)C2=O` [PROCERANOLIDE], for which, in experiment [1], the inhibition entry is “Dose-dependent effect” and the 50% inhibitory concentration (IC50) was 50.7 µM. Further, in experiment [2], the IC50 is above 27 µM.
Turning to `COC(=O)C[C@@H]1C(C)(C)C(=O)C=C[C@@]1(C)[C@H]1CC[C@@]2(C)[C@H](c3ccoc3)OC(=O)C[C@]2(O)[C@]1(C)O` [THAIMOLUCCENSIN A], in experiment [1], the inhibition result is “Dose-dependent effect” and the IC50 was determined as 45.8 µM.
In turn, `COC(=O)C[C@H]1[C@]2(C)CO[C@@]3(O)[C@]1(C)[C@H]1CC[C@]4(C)[C@@H](CC(=O)O[C@H]4c4ccoc4)C1=C[C@@]3(O)[C@H]2OC(C)=O` [THAIMOLUCCENSIN B] had an IC50 in experiment [2] above 27 µM.
On to `COC(=O)C[C@H]1[C@]2(C)C[C@@]3(OC(=O)C(C)C)[C@]1(C)[C@H]1CC[C@]4(C)C(=C1C(=O)[C@@]3(O)[C@H]2OC(C)=O)CC(=O)O[C@H]4c1ccoc1` [THAIMOLUCCENSIN C], for which, in experiment [1], the inhibition entry was “Dose-dependent effect” and the 50% inhibitory concentration (IC50) was 32.3 µM. The compound also had a half-maximal inhibitory concentration (IC50) in experiment [2] above 27 µM.

For the origin of these results see ChEMBL document CHEMBL1806445, “Limonoids from seeds of Thai Xylocarpus moluccensis” (Bioorg Med Chem Lett, 2011).
